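These data come from cells grown in 96-well plates and exposed to compound for 48 hours at five concentrations. GI50 is the concentration that inhibits growth by half.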 The source made the active and inactive calls. Cut-off read from the data, not from the text of the source: active = GI50 up to about 1.1 µM and inactive = higher.
Columns and labels:
Assay in all cases: DTP human tumour cell line panel, 48 h
T47D = system: T47D
SNB-19 = system: SNB-19
HL-60 = system: HL-60
MCF7 = system: MCF7
OVCAR-5 = system: OVCAR-5
SK-MEL-2 = system: SK-MEL-2
SW-620 = system: SW-620
M14 = system: M14
PC-3 = system: PC-3
SF-268 = system: SF-268
CAKI-1 = system: CAKI-1
MDA-MB-231 = system: MDA-MB-231
DU-145 = system: DU-145
SK-MEL-5 = system: SK-MEL-5
SF-539 = system: SF-539
BT-549 = system: BT-549
UO-31 = system: UO-31
SF-295 = system: SF-295
HOP-92 = system: HOP-92
NCI-H460 = system: NCI-H460
A549 = system: A549
ACHN = system: ACHN
SK-MEL-28 = system: SK-MEL-28
COLO 205 = system: COLO 205
SNB-75 = system: SNB-75
K562 = system: K562
NCI-H23 = system: NCI-H23
HCC 2998 = system: HCC 2998
SR = system: SR
SK-OV-3 = system: SK-OV-3
UACC-257 = system: UACC-257
NCI-H522 = system: NCI-H522
Malme-3M = system: Malme-3M
HCT-15 = system: HCT-15
KM12 = system: KM12
Hs-578T = system: Hs-578T
OVCAR-3 = system: OVCAR-3
OVCAR-8 = system: OVCAR-8
A498 = system: A498
HOP-62 = system: HOP-62
HCT-116 = system: HCT-116
NCI-H226 = system: NCI-H226
U-251 = system: U-251
UACC-62 = system: UACC-62
EKVX = system: EKVX
OVCAR-4 = system: OVCAR-4
MDA-N = system: MDA-N
RPMI-8226 = system: RPMI-8226
HT-29 = system: HT-29
786-0 = system: 786-0
CCRF-CEM = system: CCRF-CEM
LOX IMVI = system: LOX IMVI
MOLT-4 = system: MOLT-4
IGROV-1 = system: IGROV-1
RXF 393 = system: RXF 393
SN12C = system: SN12C
MDA-MB-435 = system: MDA-MB-435
NCI/ADR-RES = system: NCI/ADR-RES
TK-10 = system: TK-10

COC(=O)[C@@H]1C[C@H]([Se]c2ccccc2)CN1S(=O)(=O)c1ccc(C)cc1
GI50 (T47D): 35.7 µM (inactive)
GI50 (SNB-19): > 100 µM (inactive)
GI50 (HL-60): 36.3 µM (inactive)
GI50 (MCF7): 60.3 µM (inactive)
GI50 (OVCAR-5): > 100 µM (inactive)
GI50 (SK-MEL-2): 21.4 µM (inactive)
GI50 (SW-620): > 100 µM (inactive)
GI50 (M14): > 100 µM (inactive)
GI50 (PC-3): 26.5 µM (inactive)
GI50 (SF-268): 27.9 µM (inactive)
GI50 (CAKI-1): > 100 µM (inactive)
GI50 (MDA-MB-231): > 100 µM (inactive)
GI50 (DU-145): > 100 µM (inactive)
GI50 (SK-MEL-5): 45.2 µM (inactive)
GI50 (SF-539): > 100 µM (inactive)
GI50 (BT-549): 98.2 µM (inactive)
GI50 (UO-31): 51.9 µM (inactive)
GI50 (SF-295): 40.9 µM (inactive)
GI50 (HOP-92): > 100 µM (inactive)
GI50 (NCI-H460): > 100 µM (inactive)
GI50 (A549): 51.8 µM (inactive)
GI50 (ACHN): > 100 µM (inactive)
GI50 (SK-MEL-28): 76.2 µM (inactive)
GI50 (COLO 205): 61.5 µM (inactive)
GI50 (SNB-75): 2.87 µM (inactive)
GI50 (K562): 34.7 µM (inactive)
GI50 (NCI-H23): > 100 µM (inactive)
GI50 (HCC 2998): > 100 µM (inactive)
GI50 (SR): 32.1 µM (inactive)
GI50 (SK-OV-3): > 100 µM (inactive)
GI50 (UACC-257): > 100 µM (inactive)
GI50 (NCI-H522): 38.9 µM (inactive)
GI50 (Malme-3M): > 100 µM (inactive)
GI50 (HCT-15): > 100 µM
GI50 (KM12): 68.9 µM (inactive)
GI50 (Hs-578T): 60.7 µM (inactive)
GI50 (OVCAR-3): 56 µM (inactive)
GI50 (OVCAR-8): > 100 µM (inactive)
GI50 (A498): > 100 µM (inactive)
GI50 (HOP-62): > 100 µM (inactive)
GI50 (HCT-116): 67.3 µM (inactive)
GI50 (NCI-H226): > 100 µM (inactive)
GI50 (U-251): 53 µM (inactive)
GI50 (UACC-62): > 100 µM (inactive)
GI50 (EKVX): > 100 µM (inactive)
GI50 (OVCAR-4): 42.8 µM (inactive)
GI50 (MDA-N): > 100 µM (inactive)
GI50 (RPMI-8226): 59.4 µM (inactive)
GI50 (HT-29): 49.7 µM (inactive)
GI50 (786-0): > 100 µM (inactive)
GI50 (CCRF-CEM): 61 µM (inactive)
GI50 (LOX IMVI): > 100 µM (inactive)
GI50 (MOLT-4): 35.7 µM (inactive)
GI50 (IGROV-1): > 100 µM (inactive)
GI50 (RXF 393): 39.4 µM (inactive)
GI50 (SN12C): > 100 µM (inactive)
GI50 (MDA-MB-435): 47.1 µM (inactive)
GI50 (NCI/ADR-RES): 34.1 µM (inactive)
GI50 (TK-10): > 100 µM (inactive)

Cc1c2cccc(Sc3ccccc3)c2c2c3c(cccc13)[S+](c1ccccc1)C2 (configuration not stated)
GI50 (T47D): 0.526 µM (active)
GI50 (SNB-19): 1.73 µM (inactive)
GI50 (HL-60): 0.935 µM (active)
GI50 (MCF7): 1.33 µM (inactive)
GI50 (OVCAR-5): 3.03 µM (inactive)
GI50 (SK-MEL-2): 1.5 µM (inactive)
GI50 (SW-620): 3.26 µM (inactive)
GI50 (M14): 2.08 µM (inactive)
GI50 (PC-3): 2.06 µM (inactive)
GI50 (SF-268): 3.13 µM (inactive)
GI50 (CAKI-1): 3.19 µM (inactive)
GI50 (MDA-MB-231): 2.16 µM (inactive)
GI50 (DU-145): 3.78 µM (inactive)
GI50 (SK-MEL-5): 0.748 µM (active)
GI50 (SF-539): 2.63 µM (inactive)
GI50 (BT-549): 2.14 µM (inactive)
GI50 (UO-31): 2.95 µM (inactive)
GI50 (SF-295): 1.78 µM (inactive)
GI50 (HOP-92): 2.03 µM (inactive)
GI50 (NCI-H460): 1.58 µM (inactive)
GI50 (A549): 2.88 µM (inactive)
GI50 (ACHN): 4.04 µM (inactive)
GI50 (SK-MEL-28): 2.58 µM (inactive)
GI50 (COLO 205): 0.923 µM (active)
GI50 (SNB-75): 1.94 µM (inactive)
GI50 (K562): 0.408 µM (active)
GI50 (NCI-H23): 1.82 µM (inactive)
GI50 (HCC 2998): 1.66 µM (inactive)
GI50 (SR): 0.838 µM (active)
GI50 (SK-OV-3): 1.84 µM (inactive)
GI50 (UACC-257): 0.594 µM (active)
GI50 (NCI-H522): 0.684 µM (active)
GI50 (Malme-3M): 1.8 µM (inactive)
GI50 (HCT-15): 10.4 µM
GI50 (KM12): 1.16 µM (inactive)
GI50 (Hs-578T): 2.74 µM (inactive)
GI50 (OVCAR-3): 0.659 µM (active)
GI50 (OVCAR-8): 2.67 µM (inactive)
GI50 (A498): 2.65 µM (inactive)
GI50 (HOP-62): 1.89 µM (inactive)
GI50 (HCT-116): 2.06 µM (inactive)
GI50 (NCI-H226): 2.33 µM (inactive)
GI50 (U-251): 1.5 µM (inactive)
GI50 (UACC-62): 1.66 µM (inactive)
GI50 (EKVX): 2.71 µM (inactive)
GI50 (OVCAR-4): 1.98 µM (inactive)
GI50 (MDA-N): 2.28 µM (inactive)
GI50 (RPMI-8226): 0.221 µM (active)
GI50 (HT-29): 1.47 µM (inactive)
GI50 (786-0): 2.98 µM (inactive)
GI50 (CCRF-CEM): 1.77 µM (inactive)
GI50 (LOX IMVI): 1.72 µM (inactive)
GI50 (MOLT-4): 1.65 µM (inactive)
GI50 (IGROV-1): 2.34 µM (inactive)
GI50 (RXF 393): 3.86 µM (inactive)
GI50 (SN12C): 2.24 µM (inactive)
GI50 (MDA-MB-435): 1.75 µM (inactive)
GI50 (NCI/ADR-RES): 28.6 µM (inactive)
GI50 (TK-10): 2.67 µM (inactive)

O=S(=O)(O)CCCc1cccc2ccccc12
GI50 (T47D): > 100 µM (inactive)
GI50 (SNB-19): > 100 µM (inactive)
GI50 (HL-60): 31.3 µM (inactive)
GI50 (MCF7): > 100 µM (inactive)
GI50 (OVCAR-5): > 100 µM (inactive)
GI50 (SK-MEL-2): > 100 µM (inactive)
GI50 (SW-620): > 100 µM (inactive)
GI50 (M14): > 100 µM (inactive)
GI50 (PC-3): > 100 µM (inactive)
GI50 (SF-268): > 100 µM (inactive)
GI50 (CAKI-1): > 100 µM (inactive)
GI50 (MDA-MB-231): > 100 µM (inactive)
GI50 (DU-145): > 100 µM (inactive)
GI50 (SK-MEL-5): > 100 µM (inactive)
GI50 (SF-539): > 100 µM (inactive)
GI50 (BT-549): > 100 µM (inactive)
GI50 (UO-31): > 100 µM (inactive)
GI50 (SF-295): > 100 µM (inactive)
GI50 (HOP-92): > 100 µM (inactive)
GI50 (NCI-H460): > 100 µM (inactive)
GI50 (A549): > 100 µM (inactive)
GI50 (ACHN): > 100 µM (inactive)
GI50 (SK-MEL-28): > 100 µM (inactive)
GI50 (COLO 205): > 100 µM (inactive)
GI50 (SNB-75): > 100 µM (inactive)
GI50 (K562): > 100 µM (inactive)
GI50 (NCI-H23): > 100 µM (inactive)
GI50 (HCC 2998): > 100 µM (inactive)
GI50 (SR): > 100 µM (inactive)
GI50 (SK-OV-3): > 100 µM (inactive)
GI50 (UACC-257): > 100 µM (inactive)
GI50 (NCI-H522): > 100 µM (inactive)
GI50 (Malme-3M): > 100 µM (inactive)
GI50 (HCT-15): > 100 µM
GI50 (KM12): > 100 µM (inactive)
GI50 (Hs-578T): > 100 µM (inactive)
GI50 (OVCAR-3): > 100 µM (inactive)
GI50 (OVCAR-8): > 100 µM (inactive)
GI50 (A498): > 100 µM (inactive)
GI50 (HOP-62): > 100 µM (inactive)
GI50 (HCT-116): > 100 µM (inactive)
GI50 (NCI-H226): > 100 µM (inactive)
GI50 (U-251): > 100 µM (inactive)
GI50 (UACC-62): > 100 µM (inactive)
GI50 (EKVX): > 100 µM (inactive)
GI50 (OVCAR-4): > 100 µM (inactive)
GI50 (MDA-N): > 100 µM (inactive)
GI50 (RPMI-8226): > 100 µM (inactive)
GI50 (HT-29): > 100 µM (inactive)
GI50 (786-0): > 100 µM (inactive)
GI50 (CCRF-CEM): > 100 µM (inactive)
GI50 (LOX IMVI): > 100 µM (inactive)
GI50 (MOLT-4): > 100 µM (inactive)
GI50 (IGROV-1): > 100 µM (inactive)
GI50 (RXF 393): > 100 µM (inactive)
GI50 (SN12C): > 100 µM (inactive)
GI50 (MDA-MB-435): > 100 µM (inactive)
GI50 (NCI/ADR-RES): > 100 µM (inactive)
GI50 (TK-10): > 100 µM (inactive)

Source: ChEMBL document CHEMBL1201862, “PubChem BioAssay data set” (2004)
